Data reported in publication PMC5019375, “Characterization of Potent SMAC Mimetics that Sensitize Cancer Cells to TNF Family-Induced Apoptosis” (PLoS ONE, 2016).

Key:
cIAP1-BIR3 = cIAP1-BIR3 (Homo sapiens, UniProt Q13490); assay: FP competition assay, displacement of SMAC-rhodamine; settings: cIAP1 BIR3 Ki, 25 mM Hepes pH 7.5, 1 mM TCEP, 0.005% Tween 20, 20 nM SMAC-rhodamine, 40 mM β-glycerol phosphate, ~50 nM protein; Ki calculated from IC50
Method: Solutions for assessing SMAC-rhodamine binding to various BIR domains were empirically optimized. […] For cIAP1-BIR3, the assay buffer was 25 mM Hepes [pH 7.5] containing 40 mM β-glycerol phosphate, 1 mM TCEP, and 0.005% Tween 20, typically with 20 nM SMAC-rhodamine. For cIAP1-BIR2, cIAP2-BIR2 and cIAP2-BIR3, assays were performed in 25 mM Hepes [pH 7.5] containing 1 mM TCEP and 0.005% Tween 20, typically with 20 nM SMAC-rhodamine.
For cIAP1-BIR2, assays were conducted using 25 mM Hepes [pH 7.5] containing 1 mM TCEP, 0.005% Tween 20, ~1 μM cIAP1-BIR2, and 20 nM SMAC-rhodamine. For cIAP1-BIR3, assays were performed using the same buffered solution, except 40 mM β-glycerol phosphate was added and the cIAP1-BIR3 concentration was reduced to 50 nM. For cIAP2-BIR2, assays included a buffer containing 25 mM Hepes [pH 7.5] containing 1 mM TCEP, 0.005% Tween 20, 1 μM cIAP2-BIR2, and 20 nM SMAC-rhodamine. […] IC50 values were determined with a nonlinear fit using Prism software. Ki values were determined from the IC50 values using an online program developed by Nikolovska-Coleska et al. [26].

[1] = system: PC-3 prostate cancer cells; assay: Cytotoxicity assay, sensitization to LT-α (CellTiter-Glo); assay type: cell-based, human; parameters: key to LT-α EC50: IN: EC50 too weak to be determined; settings: PC-3 cells, ~90 pM LT-α, 24 h, cell viability; for EC50: read-out: LT-α EC50
Method: (§1) Cellular cytotoxicity experiments were conducted in white 96-well flat bottom plates (Greiner Bio-One #655074). PC-3 prostate cancer cells were seeded into microtiter wells in 90 μL RPMI medium with 10% fetal calf serum and antibiotics at 5,000 cells per well, and then incubated overnight at 37°C with 5% CO2/95% air. The next day, compounds diluted into the same culture medium and added in 10 μL aliquots to achieve various final concentrations, maintaining a uniform total volume per well. Either TNF (at 10 nM final) or LT-α (at ~90 pM final) resuspended in 10 μL of RPMI with 10% fetal calf serum and antibiotics was added to wells or an equal volume of medium was applied for the control well. The plates were then further incubated for 24 h. Subsequently, cell viability was assessed by the addition of 25 μL per well of Cell-Titer-Glo reagent (Promega, Inc). Plates were read using a Luminoskan Ascent luminometer.
(§2) The cellular activity of cIAP1 and cIAP2 inhibitors was evaluated through experiments where cytotoxicity of a human prostate tumor cell line (PC-3) was assessed in the presence or absence of cytokines TNF and LT-α. The experimental approach we used was to provide TNF or LT-α at a fixed concentration, which by itself was non-cytotoxic, then titrate SMAC mimetics into the cell cultures. […] The compound series described in this work has been tested against a broad range of cell lines (data not shown and [23]) and single agent toxicity was only observed for SKOV3 ovarian tumor cells. This agrees with the findings of Varfolomeev, Vince and Lalaoui, respectively.

[2] = target: T1, myc-RIP1 binding to GST-cIAP1-BIR3 (Homo sapiens, UniProt Q13490); assay: RIP1 binding, GST pull-down from HEK293T lysates; settings: various concentrations, overnight, 4°C
T1 construct: purified GST-fusion proteins (GST-cIAP1-BIR3 or GST-cIAP2-BIR3) were added; made in house; host or cells: GST fusion: bacteria (as for the other recombinant proteins); myc-RIP1: transfected HEK293T cell lysate
T1 sequence (Q13490 257-356 limits assumed): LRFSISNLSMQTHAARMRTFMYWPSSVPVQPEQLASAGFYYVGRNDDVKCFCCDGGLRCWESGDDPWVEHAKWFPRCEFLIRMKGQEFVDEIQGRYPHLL
Method: (§3) To assess the impact of compounds on cIAP1 and cIAP2 binding to RIP1, 700,000 HEK293T cells were seeded into 100 mm cell-culture plates and transfected the next day with 6 μg of plasmid DNA, myc-RIP1 in pRK5 vector. […] Lysates from 6 plates were pooled and divided into equal 300 μL aliquots, into which 7 μg of purified GST-fusion proteins (GST-cIAP1-BIR3 or GST-cIAP2-BIR3) were added in the presence of various concentrations of SMAC mimetic compounds. The tubes were rocked overnight at 4°C, and the next day 20 μL of glutathione-Sepharose beads (GE Healthcare) was added to each tube and the tubes were rocked for an additional 2 h at 4°C. The GST-fusion proteins were recovered by centrifugation at 2,300 g for 30 sec, then washed 3-times in NP-40 lysis buffer. Finally, 20 μL of 2X Laemmli buffer was added and the samples were boiled, then fractionated by SDS-PAGE, followed by immunoblotting using anti-myc antibody (Roche) for detection of myc-RIP1 and anti-GST antibody (BD Biosciences, La Jolla, CA) for detection of GST-fusion proteins.

[3] = target: T2, myc-RIP1 binding to GST-cIAP2-BIR3 (Homo sapiens, UniProt Q13489); assay: RIP1 binding, GST pull-down from HEK293T lysates; settings: various concentrations, overnight, 4°C
T2 construct: purified GST-fusion proteins (GST-cIAP1-BIR3 or GST-cIAP2-BIR3) were added; made in house; host or cells: GST fusion: bacteria (as for the other recombinant proteins); myc-RIP1: transfected HEK293T cell lysate
T2 sequence (Q13489 243-333 limits assumed): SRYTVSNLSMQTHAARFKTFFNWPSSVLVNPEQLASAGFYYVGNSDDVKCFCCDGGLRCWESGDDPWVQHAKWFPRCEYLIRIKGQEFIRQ
Method: as §3

[4] = system: PC-3 prostate cancer cells; assay: Cytotoxicity assay, sensitization to TNF (CellTiter-Glo); assay type: cell-based, human; parameters: key to TNF EC50: IN: EC50 too weak to be determined; settings: PC-3 cells, 10 nM TNF, 24 h, cell viability; for EC50: read-out: TNF EC50
Method: as §1, §2

[5] = target: T3, cIAP1 protein in MDA-MB-231 cells (Homo sapiens, UniProt Q13490); assay: Immunoblotting of cIAP1 protein levels in cells; assay type: cell-based; settings: 5 μM, 6 h, immunoblot
T3 construct: MDA-MB-231 cells contain abundant levels of cIAP1 protein but little cIAP2 protein; endogenous in cells; host or cells: MDA-MB-231
T3 sequence (Q13490 whole entry): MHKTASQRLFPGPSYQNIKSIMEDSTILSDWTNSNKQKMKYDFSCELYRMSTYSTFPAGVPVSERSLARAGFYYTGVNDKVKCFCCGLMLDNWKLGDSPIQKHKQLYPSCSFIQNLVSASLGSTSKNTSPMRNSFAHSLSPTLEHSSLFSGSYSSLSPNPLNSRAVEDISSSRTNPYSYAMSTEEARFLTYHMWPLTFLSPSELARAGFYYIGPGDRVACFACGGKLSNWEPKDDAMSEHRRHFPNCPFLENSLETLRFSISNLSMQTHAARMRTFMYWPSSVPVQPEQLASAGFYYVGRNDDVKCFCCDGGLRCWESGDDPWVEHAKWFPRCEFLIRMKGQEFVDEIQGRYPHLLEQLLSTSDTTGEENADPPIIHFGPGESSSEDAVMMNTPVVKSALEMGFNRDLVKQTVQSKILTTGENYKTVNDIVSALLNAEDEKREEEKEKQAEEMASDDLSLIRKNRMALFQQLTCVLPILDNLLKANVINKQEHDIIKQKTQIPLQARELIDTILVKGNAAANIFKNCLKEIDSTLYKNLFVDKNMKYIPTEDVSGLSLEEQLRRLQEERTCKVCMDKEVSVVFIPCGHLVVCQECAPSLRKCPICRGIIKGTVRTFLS
Method: To assess the impact of compounds on cIAP1 protein levels in cells, 40,000 MDA-MB-231 cells were cultured in complete medium (RPMI with 10% fetal calf serum and antibiotics) overnight at 37°C in 5% CO2/95% air. The following day compounds at 5 μM (or an equivalent volume of diluent control) were added. After 6 h, cells were recovered by centrifugation, lysed in SDS-sample buffer, and equivolume aliquots of lysates were analyzed by SDS-PAGE/Immunoblotting using antibodies specific for human/mouse cIAP (pan) Mab (clone 315301; R&D Systems #MAB3400) and β-actin (Sigma-Aldrich #A5441) by an enhanced chemiluminescence (ECL) method, essentially as described.

cIAP1-BIR3, sequence (Q13490 257-356): as the sequence (Q13490 257-356 limits assumed) above

| Ki (cIAP1-BIR3) [nM] | inhibition of myc-RIP1 binding to GST-cIAP1-BIR3 [2] | inhibition of myc-RIP1 binding to GST-cIAP2-BIR3 [3] | SMILES | EC50 [1] [nM] | EC50 [4] [nM] | effect on cIAP1 protein levels in cells [5] | LT-α EC50 [1] | TNF EC50 [4] |
| --- | --- | --- | --- | --- | --- | --- | --- | --- |
| 20 | inhibited binding | inhibited binding | CN[C@@H](C)C(=O)N[C@H](C(=O)N1CCC[C@@H]1C(=O)N[C@H]1CCOc2ccccc21)C(C)C [compound 37, reference compound] | 10 | 30 |  |  |  |
| 30 | inhibited binding | inhibited binding | CN[C@@H](C)C(=O)N[C@H](C(=O)N1CSC[C@@H]1C(=O)NC1CCCc2ccccc21)C(C)C (some centres unmarked) [compound 38, reference compound] | 20 | 60 | caused reductions of cIAP1 protein levels in cells |  |  |
| > 92400 | did not | did not | CN[C@@H](C)C(=O)N[C@@H](C(=O)N1CCC[C@@H]1C(=O)NNc1cccc(F)c1)C1CCCCC1 [compound 40, reference compound] |  |  | did not | IN^b | IN^b |
